In assay [1] the target is T1, Rac GTPase-activating protein 1 (Homo sapiens, UniProt Q9H0H5).
T1 sequence (Q9H0H5 whole entry): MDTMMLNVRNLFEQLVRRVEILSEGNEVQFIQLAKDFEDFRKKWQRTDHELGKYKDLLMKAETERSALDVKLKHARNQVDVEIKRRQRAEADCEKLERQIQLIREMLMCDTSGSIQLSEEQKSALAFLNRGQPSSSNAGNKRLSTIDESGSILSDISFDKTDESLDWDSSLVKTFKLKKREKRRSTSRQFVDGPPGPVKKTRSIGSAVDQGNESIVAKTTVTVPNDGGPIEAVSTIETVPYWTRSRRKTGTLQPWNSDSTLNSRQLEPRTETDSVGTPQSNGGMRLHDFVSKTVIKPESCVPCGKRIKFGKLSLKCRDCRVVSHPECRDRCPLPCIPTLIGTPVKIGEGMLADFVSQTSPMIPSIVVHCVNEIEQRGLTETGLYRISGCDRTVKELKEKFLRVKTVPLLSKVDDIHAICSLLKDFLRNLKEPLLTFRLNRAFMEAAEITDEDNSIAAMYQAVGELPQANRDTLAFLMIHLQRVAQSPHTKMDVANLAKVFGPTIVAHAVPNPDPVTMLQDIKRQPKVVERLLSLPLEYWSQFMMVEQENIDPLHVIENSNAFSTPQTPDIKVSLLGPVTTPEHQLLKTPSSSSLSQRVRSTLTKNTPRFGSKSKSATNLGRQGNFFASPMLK
The assay is described as follows: blockers of MgcRacGAP-driven Rac1 GTP hydrolysis – biochemical, ADP Hunter fluorescence, primary and confirmatory, confirmation (AID 624330). Type of assay: functional.

Assay [2] addresses T2, Ubiquitin-conjugating enzyme E2 N (Homo sapiens, UniProt P61088).
T2 sequence (P61088 whole entry): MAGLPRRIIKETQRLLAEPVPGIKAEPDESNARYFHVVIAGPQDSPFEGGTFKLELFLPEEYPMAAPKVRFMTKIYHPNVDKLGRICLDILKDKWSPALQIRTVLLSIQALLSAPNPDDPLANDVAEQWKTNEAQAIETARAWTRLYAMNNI
It is filed as functional.

Assay [3] has as its target T3, Heat shock factor protein 1 (Mus musculus, UniProt P38532).
T3 sequence (P38532 whole entry): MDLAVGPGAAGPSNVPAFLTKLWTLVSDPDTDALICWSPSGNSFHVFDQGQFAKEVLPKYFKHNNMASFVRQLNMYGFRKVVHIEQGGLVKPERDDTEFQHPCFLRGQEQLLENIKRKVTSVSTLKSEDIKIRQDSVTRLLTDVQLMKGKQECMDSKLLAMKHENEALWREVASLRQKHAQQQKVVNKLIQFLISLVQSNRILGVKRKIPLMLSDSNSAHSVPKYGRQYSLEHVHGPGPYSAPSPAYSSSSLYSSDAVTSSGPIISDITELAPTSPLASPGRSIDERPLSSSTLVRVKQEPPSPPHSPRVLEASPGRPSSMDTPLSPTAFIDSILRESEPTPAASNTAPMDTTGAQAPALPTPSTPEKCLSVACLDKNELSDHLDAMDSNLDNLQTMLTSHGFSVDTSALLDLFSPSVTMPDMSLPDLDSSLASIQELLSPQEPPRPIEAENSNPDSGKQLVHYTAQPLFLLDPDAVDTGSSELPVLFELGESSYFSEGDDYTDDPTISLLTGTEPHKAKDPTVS
Briefly: decrease of HSF1-responsive luciferase luminescence – cell-based, NIH3T3, dose retest, confirmation (AID 2382).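 Further: NIH3T3 fibroblasts with HSF1-driven luciferase reporter stressed by proteasome inhibitor MG132; luminescence from HSF1-driven luciferase expression after 8 hours of MG132 stress.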 It is filed as functional.

Assay [4] deals with T4, Polyadenylate-binding protein 1 (Homo sapiens, UniProt P11940). Briefly: MLLE domain peptide-binding blockers, IC50 – biochemical, fluorescence polarization, FITC-PAM2 peptide, dose response (AID 602259). It is filed as functional. The settings on record: read-out: IC50_Mean.
Assay [5] has as its target T4, Polyadenylate-binding protein 1. Briefly: MLLE binding blockers, Cy5 peptide tracer – biochemical, fluorescence polarization, Cy5-PAM2 peptide, secondary, miRNA deadenylation inhibitor project, dose response (AID 602260). It is filed as functional. Particulars: read-out: IC50_Mean.
Assay [6] can be described thus: luciferase reporter signal suppression in cells – H4 neuroglioma cells, luminescence, dose response (AID 1990). Type of assay: functional, cell-based.
The nature of assay [7]: Luminescence Cell-Based Dose Response HTS to Identify Inhibitors of 5'UTR Stem-Loop Driven Prion Protein mRNA Translation in H4 Neuroglioblastoma Cells. [Related pubchem assays: 1827 (Project Summary), 1813 (Primary HTS)]. It is filed as functional.
Assay [8] can be described thus: alpha-synuclein stem-loop luciferase translation blockers – H4 neuroglioma cells, luminescence, confirmation (AID 1988). Type of assay: functional, cell-based.
Assay [9] addresses T5, RNA-binding protein pos-1 (Caenorhabditis elegans, UniProt G5EF15).
T5 sequence (G5EF15 whole entry): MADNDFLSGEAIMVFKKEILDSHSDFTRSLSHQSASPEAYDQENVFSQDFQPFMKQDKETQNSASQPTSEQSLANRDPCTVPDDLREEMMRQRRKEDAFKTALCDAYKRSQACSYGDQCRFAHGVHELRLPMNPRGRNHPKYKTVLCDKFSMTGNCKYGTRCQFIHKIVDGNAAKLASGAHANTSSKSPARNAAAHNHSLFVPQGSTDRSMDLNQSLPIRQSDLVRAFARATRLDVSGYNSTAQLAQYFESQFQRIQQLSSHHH
Briefly: disruptors of C. elegans POS-1 RNA interaction – biochemical, fluorescence polarization, dose response (AID 1964).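 Further: purified POS-1 fused to maltose binding protein made in E. coli; potency of compounds blocking POS-1 binding to fluorescent RNA.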

In assay [10] the target is T6, Zinc finger protein mex-5 (Caenorhabditis elegans, UniProt Q9XUB2).
T6 sequence (Q9XUB2 whole entry): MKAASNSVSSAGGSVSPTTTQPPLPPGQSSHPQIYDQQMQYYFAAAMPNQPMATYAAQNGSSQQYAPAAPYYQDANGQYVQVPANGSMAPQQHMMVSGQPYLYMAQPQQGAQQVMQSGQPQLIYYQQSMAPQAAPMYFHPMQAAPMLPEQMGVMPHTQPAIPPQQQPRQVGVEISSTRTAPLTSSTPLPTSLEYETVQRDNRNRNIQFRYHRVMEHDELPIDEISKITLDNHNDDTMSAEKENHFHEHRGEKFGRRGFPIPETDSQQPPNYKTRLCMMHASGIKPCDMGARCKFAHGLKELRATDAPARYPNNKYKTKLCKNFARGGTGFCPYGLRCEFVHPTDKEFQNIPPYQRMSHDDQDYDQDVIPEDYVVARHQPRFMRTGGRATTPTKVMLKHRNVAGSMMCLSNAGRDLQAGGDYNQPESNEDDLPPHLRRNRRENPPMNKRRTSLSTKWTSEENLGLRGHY
Briefly: potency of MEX-5 RNA-binding blockers – biochemical, C. elegans, fluorescence polarization, dose response (AID 1960).

A further assay deals with Nonstructural protein 1 (Influenza A virus, UniProt Q194T2). Type of assay: functional, Influenza A virus (A/California/07/2009(H1N1)).
Assay [11] deals with T3, Heat shock factor protein 1. Briefly: enhancement of HSF1-driven luciferase signal – cell-based, NIH3T3, luminescence, dose retest, confirmation (AID 435004).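 Further: stress induced by proteasome inhibitor MG132 added 30 min after compound; luciferase reporter driven by HSF1 response element in NIH3T3 cells; actives raise luminescence as potentiators of the MG132 stress response.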 It is filed as functional.
Assay [12] in a line: Luminescence Cell-Based Dose Response HTS to Identify Activators of Luciferase Translation or Activity in H4 […] Cells. [Related pubchem assays: 1829 (Project Summary), 1814 (Primary HTS)]. It is filed as functional.
The subject of the next assay is H4. The assay is described as follows: Luminescence Cell-Based Dose Response HTS to Identify Activators of 5'UTR Stem-Loop Driven Prion Protein mRNA Translation in H4 Neuroglioblastoma Cells. [Related pubchem assays: 1829 (Project Summary), 1814 (Primary HTS)]. Type of assay: functional. Particulars: Homo sapiens.
The target in assay [13] is FAD-linked sulfhydryl oxidase ALR (Homo sapiens, UniProt P55789). Briefly: ALR-catalysed DTT oxidation blockers – biochemical, H2O2 detection, luminescence, cherry-pick, dose response (AID 493248).

Results on 36 compounds are retold here after ChEMBL document CHEMBL1201862, “PubChem BioAssay data set” (2004).

Calls of active or inactive are those of the source. Bounds are passed on as bounds.

T4 sequence (P11940 whole entry, the tested form may be a part): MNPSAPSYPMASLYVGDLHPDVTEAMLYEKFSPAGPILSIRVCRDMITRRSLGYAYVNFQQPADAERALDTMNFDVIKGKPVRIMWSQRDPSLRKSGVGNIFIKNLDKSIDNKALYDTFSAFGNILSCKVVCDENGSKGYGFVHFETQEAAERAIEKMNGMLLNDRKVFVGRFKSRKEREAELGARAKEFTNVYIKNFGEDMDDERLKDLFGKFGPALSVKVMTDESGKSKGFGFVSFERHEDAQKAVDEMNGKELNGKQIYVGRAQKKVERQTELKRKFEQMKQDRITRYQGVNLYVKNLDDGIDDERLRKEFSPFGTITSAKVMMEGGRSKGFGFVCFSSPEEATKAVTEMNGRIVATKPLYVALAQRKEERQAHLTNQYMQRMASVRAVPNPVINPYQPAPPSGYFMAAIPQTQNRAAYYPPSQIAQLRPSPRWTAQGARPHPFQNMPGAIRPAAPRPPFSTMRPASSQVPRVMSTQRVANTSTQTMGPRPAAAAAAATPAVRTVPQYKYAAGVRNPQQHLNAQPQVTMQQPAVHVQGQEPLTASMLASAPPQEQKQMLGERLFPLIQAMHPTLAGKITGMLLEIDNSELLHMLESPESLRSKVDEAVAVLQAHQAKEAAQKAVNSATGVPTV
Nonstructural protein 1, sequence (Q194T2 whole entry): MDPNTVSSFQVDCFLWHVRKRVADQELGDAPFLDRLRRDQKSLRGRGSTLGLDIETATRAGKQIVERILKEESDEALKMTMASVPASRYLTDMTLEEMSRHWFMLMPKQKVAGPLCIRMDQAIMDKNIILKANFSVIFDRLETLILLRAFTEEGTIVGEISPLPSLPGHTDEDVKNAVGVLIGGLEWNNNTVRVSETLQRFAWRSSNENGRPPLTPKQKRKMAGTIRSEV
FAD-linked sulfhydryl oxidase ALR, sequence (P55789 whole entry): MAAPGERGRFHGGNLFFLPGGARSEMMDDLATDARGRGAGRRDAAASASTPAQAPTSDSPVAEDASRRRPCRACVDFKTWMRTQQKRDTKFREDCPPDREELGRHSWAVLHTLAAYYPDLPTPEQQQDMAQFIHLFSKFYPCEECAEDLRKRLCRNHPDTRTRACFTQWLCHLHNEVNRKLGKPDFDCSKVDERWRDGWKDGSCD

For `CCc1cc(/C(Cc2csc(C)n2)=N/O)c(O)cc1O`, the IC50 in assay [1] is 28.3 µM (active).

For `CCN(CC)S(=O)(=O)c1cccc(-c2nnc(S)n2/N=C/c2ccc(OC(F)F)cc2)c1`, the IC50 in assay [1] is 147 µM (active). Still for that read-out and setting: with `c1ccc(-c2ccccc2OCCOCCN2CCOCC2)cc1` the figure was 58.9 µM (active).

For the compound `Nc1nc(Cl)nc2ccc(Br)cc12`, the IC50 in [2] was > 20 µM (inactive). Moreover, the EC50 in assay [3] was 5.71 µM (active). As for `COc1cccc(-c2nc(CSCC(=O)NCC3CCCO3)c(C)o2)c1` (stereo not drawn), the IC50 in assay [4] and in [5] was > 66 µM (inactive) in each case. On to `O=C(c1ccccc1)c1ccc(C(=O)N2CCN(c3ccc(O)cc3)CC2)cc1`, for which the IC50 in assay [1] is 34 µM (active). Take `CC1CCN(c2ccccc2NC(=S)NC(=O)C(C)(C)C)CC1`: the results for the EC50 in assay [6], in [7] and in assay [8] were 16 µM (active), > 120 µM (not active) and > 120 µM (not active), respectively. In addition, the IC50 in [4] and in assay [5] was > 66 µM (inactive) in each case. As to `N#Cc1c(-c2ccc(Cl)cc2)c2c([nH]c1=O)-c1ccccc1OC2`, the EC50 was > 300 µM (not active) in assay [9] and 53 µM (active) in [10]. In the case of `O=C(COC(=O)C1CCCCC1)Nc1ccc(N2CCCCC2)cc1`, the IC50 at Nonstructural protein 1 is 34.6 µM (active).

Regarding `COc1ccc(C)cc1-n1c(=O)c2ccccc2c2ccccc2c1=O`, in assay [11], the EC50 is 11.7 µM (active).

In the case of `O=C(NCC1CCCO1)C(=O)N/N=C/c1cc(Cl)ccc1O` (stereo not drawn), the IC50 on Nonstructural protein 1 was 7.81 µM (active). As to `CCOC(=O)/C(C#N)=C/c1cn(CCC(=O)O)nc1-c1ccc(Cl)cc1`, the EC50 in assay [11] is > 260 µM (inactive). For the compound `Cc1cccc(-n2c(N)cc(=O)nc2SCC(=O)Nc2cc(C)on2)c1`, the IC50 in assay [4] and in assay [5] was > 66 µM (inactive) throughout.

Consider `NC(S)=NN=C1c2cc(S(=O)(=O)N3CCOCC3)ccc2-c2ccc(S(=O)(=O)N3CCOCC3)cc21`, for which the IC50 in assay [4] and in assay [5] was > 66 µM (inactive) in each case.

Consider `CCCNc1cc(S)nc(N)n1`, for which the IC50 in assay [4] and in assay [5] was > 66 µM (inactive) each time. Regarding `CCOc1cc(/C=N/n2c(C)nnc2C)ccc1O`, in assay [1], the IC50 is 103 µM (active). As to `O=C(NN1C(=O)c2ccccc2NC1c1ccccn1)c1ccc(Br)cc1` (stereo not drawn), the values for the EC50 in [9] and in [10] were 64.9 µM (active) and 15.5 µM (active), respectively. In the case of `Cc1cccn2c(=O)c3cc(C(=O)N(C)C)n(C)c3nc12`, the IC50 is 39.3 µM (inactive) in assay [4] and > 66 µM (inactive) in assay [5]. In the case of `Cn1cc(/C=C2/SC(=O)N(c3ccccc3)C2=O)c2ccccc21`, the EC50 in assay [12] was 50.8 µM (active); in the assay on H4 it was 94.6 µM (active). On to `CSc1ccc(CCNC(=O)c2nn(C)c3c2CS(=O)(=O)c2ccccc2-3)cc1`, for which the EC50 in assay [11] is > 260 µM (inactive). With `CCOC(=O)C1=C(c2ccccc2)NC(=O)NC1c1cc(Br)c(O)c(OC)c1` (stereo not drawn), the EC50 in assay [11] was > 260 µM (inactive). On to `N=C1/C(=C\c2ccc(SCc3ccccc3)o2)C(=O)N=C2SC(CC(=O)N3CCOCC3)=NN12`, for which the concentration giving a half-maximal response (EC50) in [9] was 63.4 µM (active); in [10] it was 33.3 µM (active).

Take `CN(C)C=O.Oc1cccc2c(NC(S)=Nc3ccc(OC(F)F)cc3)cccc12`: the figures for the half-maximal effective concentration (EC50) (in [12]; with H4) were 12.8 µM (active) and > 120 µM (not active), respectively. Also, the IC50 in assay [1] was 116 µM (active). On to `Cc1ccc(/C=N/NC(=O)c2cccc(S(=O)(=O)Nc3ccccc3Cl)c2)o1`, for which, in assay [11], the EC50 is > 260 µM (inactive). As for `CCOC(=O)c1cnc2nc(C)ccc2c1O`, the EC50 in [9] was 13.7 µM (inconclusive); in assay [10], 11.8 µM (active). As to `CCOC(=O)c1c(N/C=C2/C(=O)NC(=O)N(c3cccc(C)c3)C2=O)sc2c1CCCC2`, the EC50 in [9] and in assay [10] was > 300 µM (not active) each time. Consider `Cc1ccc2oc(C(=O)N3CCC(O)(c4cccc(C(F)(F)F)c4)CC3)c(C)c2c1`, for which the EC50 in assay [11] was 54.9 µM (active). Turning to `Cc1c(C(=O)NCc2ccc3c(c2)cc(C)n3C)cccc1[N+](=O)[O-]`, the IC50 in assay [4] and in [5] was > 66 µM (inactive) throughout. As for `NC(=S)N=Nc1c(O)[nH]c2c(Cl)cc(Cl)cc12`, the IC50 in assay [4] and in [5] was > 66 µM (inactive) in each case.

In the case of `COc1cc(/C=N/NC(=O)c2cc3ccccc3[nH]2)ccc1O`, the AC50 in assay [13] was 0.393 µM (active). For the same compound, the IC50 in assay [1] was 17.8 µM (active). For `CN(C)c1ccc(NC(=O)c2ccc3nsnc3c2)cc1`, the IC50 in assay [1] was 65.4 µM (active). For the compound `COc1ccc(/C=C(\NC(=O)c2ccccc2)C(=O)N/N=C/c2sccc2C)cc1`, in assay [11], the EC50 was > 260 µM (inactive). In the case of `c1ccc(CN2CCN(Cc3ccc4ccccc4c3)CC2)cc1`, the IC50 in assay [1] is 123 µM (active). Regarding `CC(C)C(=O)OCC(=O)Nc1ccc(N=Nc2ccccc2)cc1`, on Nonstructural protein 1, the IC50 was > 100 µM (active). As to `CCC(Sc1nc2nnc(C)c-2c(N)n1-c1ccc(C)c(Cl)c1)C(=O)N1CCOCC1` (stereo not drawn), the EC50 in assay [11] is > 260 µM (inactive). On to `O=C(CCSc1ccc(Cl)cc1)N1CCCCCC1`, for which the EC50 in assay [12] is > 120 µM (not active); in the assay on H4, 21.6 µM (active).
